Experimental findings from article PMC4200806, “A Combined Experimental and Computational Study of Vam3, a Derivative of Resveratrol, and Syk Interaction” (International Journal of Molecular Sciences, 2014) are described below.

This experiment deals with Spleen tyrosine kinase (Syk) (Homo sapiens, UniProt P43405). In words: in vitro kinase assay with purified recombinant Syk (ADP-Glo, poly(Glu,Tyr) substrate); Ki from ATP-competition kinetics; IC50 […]. It is filed as biochemical.

pKi: −log10 of the molar value.

`Oc1ccc(/C=C/c2cc(O)cc3oc(-c4ccc(O)cc4)c(-c4cc(O)cc(O)c4)c23)cc1` [Vam3]: the pKi – broadly, the Ki on a negative log10 scale, so that one unit is a factor of ten – was 7.21.
